Literature values in US6830755B2, “Method for relaxing human beings using personal care compositions” (Johnson & Johnson Consumer Companies, Inc., priority 1999, dated 2004).

System: salivary cortisol
Details: exposure to fragrance before stressful arithmetic

## Cc1c[nH]c2ccccc12 [skatole]
  effect on stress induced release of cortisol (in words): had the opposite effect
